Counter-ions that a name gives are not always drawn. Like-named read-outs stand apart in the source and are kept apart here.
Columns and labels:
5-HT4 receptor = 5-HT4 receptor (Cavia porcellus, UniProt O70528); assay: Increase in contraction height of electrically stimulated longitudinal muscle of isolated guinea pig ileum (LMMP); type: cell-based; set-up: key: +: indicates the increase in the contraction height; -: indicates no effect
Excerpt: Ileum was excised from guinea pigs to prepare longitudinal muscle samples with approximately 2 cm length. The sample was suspended in Krebs-Henseleit liquid bath supplied with a mixed gas (95% O2, 5% CO2) and subjected to electrical stimulation (1 msec, 0.1 Hz) to record contraction force isometrically. The test compounds were. dissolved in distilled water or DMSO and tested at a concentration of 10^-7 M (but 10^-6 M for Compound 11). The results are shown by the presence or absence of the increase in the contraction height by electrical stimulation before administration of the compound, wherein the symbol "+" indicates the increase in the contraction height, while "-" indicates no effect.
Whether or not the action of the above compounds is that via activation of 5-HT4 receptors was investigated using as 5-HT4 receptor antagonist, SDZ 205-557 (2-methoxy-4-amino-5-chlorobenzoic acid 2-(diethylamino)ethyl ester) described in Naunyn-Schmiedeberg's Arch Pharmacol (1992) 345:387-393. Thus, the investigation as to whether SDZ 205-557 can antagonize the increase in the contraction height of the above compounds using the longitudinal muscle preparation of the isolated guinea pig ileum can reveal that such increase in the contraction height is the action via activation of 5-HT4 receptors.

5-HT4 receptors = target: T1, 5-HT4 receptors (Rattus norvegicus, UniProt Q62758); assay: Relaxation of carbachol-contracted rat oesophageal tunica muscularis mucosae; type: cell-based
T1 construct: from tissue; host or cells: rat oesophageal tunica muscularis mucosae
Procedure: The agonistic activity of oxazabicyclo derivatives and Mosapride on 5-HT4 receptors was determined by the procedure mentioned in Naunyn-Schmiedeberg's Arch Pharmacol (1991) 343:439-446.
The rat oesophageal tunica muscularis mucosae were suspended in organ both containing Krebs-Henseleit solution aerated with a mixed gas (95% O2, 5% CO2) and contracted with carbachol (1×10^-6 M). After the contraction was stabilized, the cumulative administration of the compounds was performed to determine the relaxation of the rat oesophagus pre-contracted with carbachol. The concentration (ED50) to cause 50% relaxation of the carbachol-induced contraction was measured. The result is expressed in terms of -log ED50 and shown in the following table in which higher numerical value indicates higher activity.

5-HT3 receptor = target: T2, 5-HT3 receptor (Rattus norvegicus, UniProt P35563); assay: 5-HT3 receptor antagonist activity: inhibition of 2-Me-5-HT-induced reduction in heart rate in anesthetized rats; type: in vivo; conditions: iv (jugular vein) 5 minutes before 2-Me-5-HT 0.1 mg/kg, read-out: IC50 (the source's name)
T2 construct: from tissue; host or cells: whole anesthetized rat (in vivo); endogenous receptor
T2 sequence (P35563 24-483): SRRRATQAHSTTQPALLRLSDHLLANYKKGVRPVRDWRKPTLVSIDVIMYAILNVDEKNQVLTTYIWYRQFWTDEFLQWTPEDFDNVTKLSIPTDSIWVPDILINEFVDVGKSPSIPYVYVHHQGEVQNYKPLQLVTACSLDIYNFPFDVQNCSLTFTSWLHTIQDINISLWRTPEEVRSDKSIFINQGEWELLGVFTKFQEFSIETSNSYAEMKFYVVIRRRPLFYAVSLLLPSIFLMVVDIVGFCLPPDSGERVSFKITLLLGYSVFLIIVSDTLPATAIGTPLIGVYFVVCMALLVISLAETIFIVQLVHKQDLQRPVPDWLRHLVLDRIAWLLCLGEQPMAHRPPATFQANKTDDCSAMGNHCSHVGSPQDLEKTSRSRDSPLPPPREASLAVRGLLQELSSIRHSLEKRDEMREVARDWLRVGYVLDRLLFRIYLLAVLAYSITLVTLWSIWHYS
Procedure: For the purpose of studying a receptor selectivity of the present compounds, the 5-HT3 receptor antagonist activity was tested in the following manner. Rats were anesthetized with urethane and heart rate was recorded through femoral artery. The 5-HT3 selective agonist, 2-methyl-5-hydroxytryptamine (2-Me-5-HT) was administered at 0.1 mg/kg through carotid arteries and transient reduction in heart rate was recorded. The test. compounds were administered through jugular vein at 5 minutes before the administration of 2-Me-5-HT, inhibitory rate of reduction in heart rate by the administration of 2-Me-5-HT was calculated and IC50 value was calculated from the inhibitory rate.

T1 sequence (Q62758 whole entry): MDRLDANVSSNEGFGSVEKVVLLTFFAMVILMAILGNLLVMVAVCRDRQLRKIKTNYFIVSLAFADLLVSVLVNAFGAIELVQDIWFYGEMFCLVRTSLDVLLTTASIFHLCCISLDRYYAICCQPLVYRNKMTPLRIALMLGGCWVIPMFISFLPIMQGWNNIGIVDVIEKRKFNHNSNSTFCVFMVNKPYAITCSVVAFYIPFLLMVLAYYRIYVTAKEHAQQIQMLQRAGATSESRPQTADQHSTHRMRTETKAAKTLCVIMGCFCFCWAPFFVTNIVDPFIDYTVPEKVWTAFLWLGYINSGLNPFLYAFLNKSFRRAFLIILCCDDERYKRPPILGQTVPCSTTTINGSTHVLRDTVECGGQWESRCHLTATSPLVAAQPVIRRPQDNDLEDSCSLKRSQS
Chain of 5-HT4 receptor (O70528 whole entry): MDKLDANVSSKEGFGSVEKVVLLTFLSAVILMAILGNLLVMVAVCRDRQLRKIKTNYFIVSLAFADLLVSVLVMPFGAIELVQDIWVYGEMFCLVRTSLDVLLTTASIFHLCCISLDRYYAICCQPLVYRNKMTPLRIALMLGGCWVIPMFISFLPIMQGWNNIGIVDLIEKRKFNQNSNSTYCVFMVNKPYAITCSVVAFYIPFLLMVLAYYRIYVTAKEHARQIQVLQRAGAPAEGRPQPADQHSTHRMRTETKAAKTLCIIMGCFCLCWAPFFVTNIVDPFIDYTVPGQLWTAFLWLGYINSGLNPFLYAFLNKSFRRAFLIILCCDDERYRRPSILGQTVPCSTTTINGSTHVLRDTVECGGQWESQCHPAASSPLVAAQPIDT

In the case of CCCCN1[C@@H]2COC[C@H]1C[C@@H](NC(=O)c1nn(C(C)CC)c3ccccc13)C2 (relative stereo) [Example 8], the “LMMP: presence or absence of the increase in the contraction height by electrical stimulation” value (5-HT4 receptor; test concentration 10^-7 M) is reported as “+”, the EC50 (5-HT4 receptors) is reported as 0.631 µM and the ED50 (5-HT3 receptor) is reported as 0.0297 mg/kg.
CCCCN1[C@@H]2COC[C@H]1C[C@@H](NC(=O)c1nn(C(C)CCC)c3ccccc13)C2 (relative stereo) [Example 9, N-[endo-9-(n-Butyl)-3-oxa-9-azabicyclo[3.3.1]non-7-yl]-1-(2-pentyl)-indazole-3-carboxamide] showed an EC50 (5-HT4 receptors) of 0.776 µM.
Molecule CC#CC(C)n1nc(C(=O)N[C@H]2C[C@H]3COC[C@@H](C2)N3CCCC)c2ccccc21 (relative stereo) [Example 17, N-[endo-9-(n-Butyl)-3-oxa-9-azabicyclo[3.3.1]non-7-yl]-1-(1-methyl-2-butynyl)indazole-3-carboxamide] has an EC50 (5-HT4 receptors) of 2.24 µM.
CN1[C@@H]2COC[C@H]1C[C@@H](NC(=O)c1nn(C)c3ccccc13)C2 [Comparative Example 1, N-[endo-9-Methyl-3-oxa-9-azabicyclo[3.3.1]non-7-yl]-1-methylindazole-3-carboxamide, reference compound] was tested, and the “LMMP: presence or absence of the increase in the contraction height by electrical stimulation” value (5-HT4 receptor; test concentration 10^-7 M) was “-” and the EC50 (5-HT4 receptors; ED50 = concentration to cause 50% relaxation of contraction by carbachol (1×10^-6 M), cumulative administration, read-out: Activity (-log ED50) (converted)) was 115 µM.
For CC(C)n1nc(C(=O)N[C@H]2C[C@H]3COC[C@@H](C2)N3C)c2ccccc21 [Comparative Example 2, N-[endo-9-Methyl-3-oxa-9-azabicyclo[3.3.1]non-7-yl]-1-isopropylindazole-3-carboxamide, reference compound], the “LMMP: presence or absence of the increase in the contraction height by electrical stimulation” value (5-HT4 receptor; test concentration 10^-7 M) was “+”, the EC50 (5-HT4 receptors) was 1.51 µM and the ED50 (5-HT3 receptor) was 0.00032 mg/kg.
For CCCCN1[C@@H]2COC[C@H]1C[C@@H](NC(=O)c1nn(CCC)c3ccccc13)C2 [Example 1, N-[endo-9-(n-Butyl)-3-oxa-9-azabicyclo[3.3.1]non-7-yl]-1-(n-propyl)indazole-3-carboxamide], the EC50 (5-HT4 receptors) was 3.8 µM.
For CCCN1[C@@H]2COC[C@H]1C[C@@H](NC(=O)c1nn(C(C)C)c3ccccc13)C2 [Example 2, N-[endo-9-(n-Propyl)-3-oxa-9-azabicyclo[3.3.1]non-7-yl]-1-isopropyl-indazole-3-carboxamide], the “LMMP: presence or absence of the increase in the contraction height by electrical stimulation” value (5-HT4 receptor; test concentration 10^-7 M) was “+”, the EC50 (5-HT4 receptors) was 2.88 µM and the ED50 (5-HT3 receptor) was 0.0089 mg/kg.
CCCN1[C@@H]2COC[C@H]1C[C@@H](NC(=O)c1nn(C(CC)CC)c3ccccc13)C2 [Example 3, N-[endo-9-(n-Propyl)-3-oxa-9-azabicyclo[3.3.1]non-7-yl]-1-(3-pentyl)-indazole-3-carboxamide] gave an EC50 (5-HT4 receptors) of 1.66 µM.
In the case of CCCCN1[C@@H]2COC[C@H]1C[C@@H](NC(=O)c1nn(CC)c3ccccc13)C2 [Example 4, N-[endo-9-(n-Butyl)-3-oxa-9-azabicyclo[3.3.1]non-7-yl]-1-ethylindazole-3-carboxamide], the EC50 (5-HT4 receptors) is reported as 10.2 µM.
CCCCN1[C@@H]2COC[C@H]1C[C@@H](NC(=O)c1nn(CCCC)c3ccccc13)C2 [Example 6, N-[endo-9-(n-Butyl)-3-oxa-9-azabicyclo[3.3.1]non-7-yl]-1-(n-butyl)-indazole-3-carboxamide] showed an EC50 (5-HT4 receptors) of 4.68 µM.
CCCCN1[C@@H]2COC[C@H]1C[C@@H](NC(=O)c1nn(CC(C)C)c3ccccc13)C2 [Example 7, N-[endo-9-(n-Butyl)-3-oxa-9-azabicyclo[3.3.1]non-7-yl]-1-isobutyl-indazole-3-carboxamide] showed an EC50 (5-HT4 receptors) of 5.25 µM.
Molecule CCCCN1[C@@H]2COC[C@H]1C[C@@H](NC(=O)c1nn(C(CC)CC)c3ccccc13)C2 [Example 10, N-[endo-9-(n-Butyl)-3-oxa-9-azabicyclo[3.3.1.]non-7-yl]-1-(3-pentyl)indazole-3-carboxamide] has an EC50 (5-HT4 receptors) of 0.851 µM.
With C=CCn1nc(C(=O)N[C@H]2C[C@H]3COC[C@@H](C2)N3CCCC)c2ccccc21 [Example 11, N-[endo-9-(n-Butyl)-3-oxa-9-azabicyclo[3.3.1]non-7-yl]-1-allyl-indazole-3-carboxamide] the “LMMP: presence or absence of the increase in the contraction height by electrical stimulation” value (5-HT4 receptor; test concentration 10^-6 M (Compound 11)) was “+” and the EC50 (5-HT4 receptors) was 3.55 µM.
Molecule CCCCN1[C@@H]2COC[C@H]1C[C@@H](NC(=O)c1nn(CC=C(C)C)c3ccccc13)C2 [Example 12, N-[endo-9-(n-Butyl)-3-oxa-9-azabicyclo[3.3.1]non-7-yl]-1-(3-methyl-2-butenyl)indazole-3-carboxamide] has an EC50 (5-HT4 receptors) of 6.76 µM.
With CCCCN1[C@@H]2COC[C@H]1C[C@@H](NC(=O)c1nn(CC3CC3)c3ccccc13)C2 [Example 13, N-[endo-9-(n-Butyl)-3-oxa-9-azabicyclo[3.3.1]non-7-yl]-1-(cyclopropylmethyl)indazole-3-carboxamide] the “LMMP: presence or absence of the increase in the contraction height by electrical stimulation” value (5-HT4 receptor; test concentration 10^-7 M) was “+” and the EC50 (5-HT4 receptors) was 2.09 µM.
For CCCCCN1[C@@H]2COC[C@H]1C[C@@H](NC(=O)c1nn(C(C)C)c3ccccc13)C2 [Example 14, N-[endo-9-(n-Pentyl)-3-oxa-9-azabicyclo[^3.3.1]non-7-yl]-1-isopropylindazole-3-carboxamide], the “LMMP: presence or absence of the increase in the contraction height by electrical stimulation” value (5-HT4 receptor; test concentration 10^-7 M) was “+”, the EC50 (5-HT4 receptors) was 1.48 µM and the ED50 (5-HT3 receptor) was 0.0281 mg/kg.
With CCCCCN1[C@@H]2COC[C@H]1C[C@@H](NC(=O)c1nn(C(CC)CC)c3ccccc13)C2 [Example 15, N-[endo-9-(n-Pentyl)-3-oxa-9-azabicyclo[3.3.1]non-7-yl]-1-(3-pentyl)-indazole-3-carboxamide] the EC50 (5-HT4 receptors) was 0.813 µM.
In the case of CCCCN1[C@@H]2COC[C@H]1C[C@@H](NC(=O)c1nn(C3CCCC3)c3ccccc13)C2 [Example 16, N-[endo-9-(n-Butyl)-3-oxa-9-azabicyclo[3.3.1]non-7-yl]-1-cyclopentyl-indazole-3-carboxamide], the EC50 (5-HT4 receptors) is reported as 7.76 µM.
CCCCN1[C@@H]2COC[C@H]1C[C@@H](NC(=O)c1nn([C@@H](C)CC)c3ccccc13)C2 [Example 18, (S)-(+)-N-[endo-9-(n-Butyl)-3-oxa-9-azabicyclo[3.3.1]non-7-yl]-1-(sec-butyl)indazole-3-carboxamide] was tested, and the EC50 (5-HT4 receptors) was 0.437 µM and the ED50 (5-HT3 receptor) was 0.0183 mg/kg.
Work on CCCCN1[C@@H]2COC[C@H]1C[C@@H](NC(=O)c1nn([C@H](C)CC)c3ccccc13)C2 [Example 19, (R)-(-)-N-[endo-9-(n-Butyl)-3-oxa-9-azabicyclo[3.3.1]non-7-yl]-1-(sec-butyl)indazole-3-carboxamide] yielded an EC50 (5-HT4 receptors) of 1.05 µM.
In the case of CCCCN1[C@@H]2COC[C@H]1C[C@@H](NC(=O)c1nn(C(C)C)c3ccc(O)cc13)C2 [Example 26, N-[endo-9-(n-Butyl)-3-oxa-9-azabicyclo[3.3.1]non-7-yl]-5-hydroxy-1-isopropylindazole-3-carboxamide (hydrochloride)], the EC50 (5-HT4 receptors) is reported as 10.5 µM.
Molecule CCCCN1[C@@H]2COC[C@H]1C[C@@H](NC(=O)c1nn(C(C)C)c3c(O)cccc13)C2 [Example 27, N-[endo-9-(n-Butyl)-3-oxa-9-azabicyclo[3.3.1]non-7-yl]-7-hydroxy-1-isopropylindazole-3-carboxamide (hydrochloride)] has an EC50 (5-HT4 receptors) of 15.8 µM.
Work on CC(C)n1nc(C(=O)N[C@H]2C[C@H]3COC[C@@H](C2)N3)c2ccccc21 [Example 28, N-[endo-3-Oxa-9-azabicyclo[3.3.1]non-7-yl]-1-isopropylindazole-3-carboxamide (hydrochloride)] yielded an EC50 (5-HT4 receptors) of 0.468 µM.

Source: patent US5684003A, “5-HT4 receptor agonists” (Nisshin Flour Milling Co., Ltd., priority 1994, dated 1997)
